Earlier results as cited in US9839609B2 (priority 2009, dated 2017).

Tests used:
[1] = in vivo
[2] = chronic administration
[3] = oral, rats

SMILES	fraction of DMSO metabolized into MSM in the body [1]	dose chronically administered without any serious adverse effects [2] [g/kg daily]	LD50 [3]
C[S+](C)[O-] [DMSO, Dimethyl sulfoxide]	Approximately 17%	5	–
CS(C)(=O)=O [MSM, Methylsulfonylmethane]	–	–	approximately 17 g/kg
